Data as given in US20230066011A1, “PYRROLOPYRIMIDINE DERIVATIVE, AND PHARMACEUTICAL COMPOSITION FOR PREVENTING OR TREATING PROTEIN KINASE-RELATED DISEASE COMPRISING SAME AS ACTIVE INGREDIENT” (VORONOI CO., LTD., priority 2019, published 2023).

Experiments:
human GST-CLK1 = target: T1, human GST-CLK1 (Homo sapiens, UniProt P49759); assay: GST-CLK1 enzyme inhibition, ADP-Glo kinase assay; type: biochemical; conditions: ATP 10 μM, GST-CLK1 129-end
T1 construct: purified human GST-CLK1 (129-end, SignalChem) enzyme; purchased SignalChem
T1 sequence (P49759 129-484 limits assumed): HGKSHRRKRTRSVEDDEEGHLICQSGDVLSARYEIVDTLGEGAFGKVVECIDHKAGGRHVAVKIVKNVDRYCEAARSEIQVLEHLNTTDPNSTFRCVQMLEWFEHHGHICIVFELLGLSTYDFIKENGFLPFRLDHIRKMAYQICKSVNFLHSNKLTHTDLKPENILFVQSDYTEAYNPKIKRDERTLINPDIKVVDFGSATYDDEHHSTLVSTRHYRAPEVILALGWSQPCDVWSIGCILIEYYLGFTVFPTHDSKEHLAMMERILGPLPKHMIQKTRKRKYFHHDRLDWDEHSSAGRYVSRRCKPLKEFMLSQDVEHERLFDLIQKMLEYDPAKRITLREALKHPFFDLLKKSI
Outline: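 Human GST-CLK1 (129-end, 3 ng) reacted with substrate and 10 μM ATP for 1 h at 25° C in 40 mM Tris-HCl pH 7.4, 20 mM MgCl2, 0.5 mg/mL BSA, 50 μM DTT. ADP-Glo luminescence was normalised to solvent control; IC50 (nM) from 3 data sets.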

human GST-DYRK1A = target: T2, human GST-DYRK1A (Homo sapiens, UniProt Q13627); assay: GST-DYRK1A enzyme inhibition, ADP-Glo kinase assay; type: biochemical; conditions: ATP 10 μM, GST-DYRK1A full length, read-out: DYRK1 IC50
T2 construct: purified human GST-DYRK1A (full length, Thermo Scientifics) enzyme; purchased Thermo Scientifics
Outline: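 Full-length human GST-DYRK1A (10 ng) with 10 μM ATP and specific substrate in 40 mM Tris-HCl pH 7.4, 20 mM MgCl2, 0.5 mg/mL BSA, 50 μM DTT, 1 h at 25 °C. ADP formation read by ADP-Glo luminescence relative to solvent control; IC50 from three data sets.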

SMILES | IC50 (human GST-CLK1) [nM] | IC50 (human GST-DYRK1A) [nM]
COc1cc(P2(=O)CCN(C3COC3)CC2)ccc1Nc1nc(NCC2CCC2)c2c(C#N)c[nH]c2n1 [Example 307, 4-((cyclo-butylmethyl)amino)-2-((2-methoxy-4-(1-(oxetan-3-yl)-4-oxido-1,4-azaphosphinan-4-yl)phenyl)amino)-7H-pyrrolo[2,3-d]pyrimidine-5-carbonitrile] | 101 to 300 | 301 to 1000
COc1cc(P2(=O)CCN(C3CC3)CC2)ccc1Nc1nc(NCC2CCCC2)c2c(C#N)c[nH]c2n1 [Example 308, 4-((cyclo-pentylmeth-yl)amino)-2-((4-(1-cyclopropyl-4-oxido-1,4-azaphosphinan-4-yl)-2-methoxyphenyl)a-mino)-7H-pyrrolo[2,3-d]pyrimidine-5-carbonitrile] | 301 to 1000 | 301 to 1000
COc1cc(P2(=O)CCN(C3COC3)CC2)ccc1Nc1nc(NCC2CCCC2)c2c(C#N)c[nH]c2n1 [Example 309, 4-((cyclo-pentylmeth-yl)amino)-2-((2-methoxy-4-(1-(oxetan-3-yl)-4-oxido-1,4-azaphosphinan-4-yl)phenyl)amino)-7H-pyrrolo[2,3-d]pyrimidine-5-carbonitrile] | 301 to 1000 | 301 to 1000
COc1cc(P2(=O)CCN(C3CC3)CC2)ccc1Nc1nc(NCCS(C)(=O)=O)c2c(C#N)c[nH]c2n1 [Example 310, 2-((4-(1-cycloproopyl-4-oxido-1,4-azaphosphinan-4-yl)-2-methoxyphenyl)a-mino)-4-((2-(methylsulfonyl)ethyl)amino)-7H-pyrrolo[2,3-d]pyrimidine-5-carbonitrile] | 101 to 300 | 301 to 1000
COc1cc(P2(=O)CCN(C3COC3)CC2)ccc1Nc1nc(NC2COC2)c2c(C#N)c[nH]c2n1 [Example 311, 2-((2-methoxy-4-(1-(oxetan-3-yl)-4-oxido-1,4-azaphosphinan-4-yl)phenyl)amino)-4-(oxetan-3-ylamino)-7H-pyrrolo[2,3-d]pyrimidine-5-carbonitrile] | 301 to 1000 | 301 to 1000
N#Cc1c[nH]c2nc(Nc3ccc(C(=O)N4CCN(C5COC5)CC4)c4c3OCCO4)nc(NCC3CCC3)c12 [Example 318, 4-((cyclo-butylmethyl)amino)-2-((8-(4-(oxetan-3-yl)piperazine-1-carbonyl)-2,3-dihydrobenzo[b] [1,4]dioxin-5-yl)amino)-7H-pyrrolo[2,3-d]pyrimidine-5-carbonitrile] | 101 to 300 | 301 to 1000
COc1cc(P2(=O)CCN(C3CC3)CC2)ccc1Nc1nc(NC2CCCCC2)c2c(C#N)c[nH]c2n1 [Example 323, 4-(cyclo-hexylamino)-2-((4-(1-cyclopropyl-4-oxido-1,4-azaphosphinan-4-yl)-2-methoxyphenyl)a-mino)-7H-pyrrolo[2,3-d]pyrimidine-5-carbonitrile] | 301 to 1000 | 101 to 300
N#Cc1c[nH]c2nc(Nc3ccc(C(=O)N4CC(CO)(CO)C4)c4c3OCCO4)nc(NCC3CC3)c12 [Example 338, 2-((8-(3,3-bis (hydroxymethyl)azetidine-1-carbonyl)-2,3-dihydrobenzo [b][1,4]dioxin-5-yl)amino)-4-((cyclopropyl-meth-yl)amino)-7H-pyrrolo[2,3-d]pyrimidine-5-carbonitrile] | < 100 | 101 to 300
N#Cc1c[nH]c2nc(Nc3ccc(C(=O)N4CC(CO)(CO)C4)c4c3OCCO4)nc(NCC3CCC3)c12 [Example 339, 2-((8-(3,3-bis (hydroxymethyl)azetidine-1-carbonyl)-2,3-dihydrobenzo [b][1,4]dioxin-5-yl)amino)-4-((cyclobutyl-methyl)amino)-7H-pyrrolo[2,3-d]pyrimidine-5-carbonitrile] | < 100 | 301 to 1000
N#Cc1c[nH]c2nc(Nc3ccc(C(=O)N4CC(CO)(CO)C4)c4c3OCCO4)nc(NCC3CCCC3)c12 [Example 340, 2-((8-(3,3-bis (hydroxymethyl)azetidine-1-carbonyl)-2,3-dihydrobenzo [b][1,4]dioxin-5-yl)amino)-4-((cyclopentyl-methyl)amino)-7H-pyrrolo[2,3-d]pyrimidine-5-carbonitrile] | < 100 | 301 to 1000

More lines, now with the values ahead:

IC50 (human GST-CLK1) [nM] | IC50 (human GST-DYRK1A) [nM] | SMILES
< 100 | 101 to 300 | COCCNc1nc(Nc2ccc(P3(=O)CCN(C4COC4)CC3)cc2OC)nc2[nH]cc(C#N)c12 [Example 312, 2-((2-methoxy-4-(1-(oxetan-3-yl)-4-oxido-1,4-azaphosphinan-4-yl)phenyl)amino)-4-((2-methoxyethyl)amino)-7H-pyrrolo[2,3-d]pyrimidine-5-carbonitrile]
< 100 | 301 to 1000 | N#Cc1c[nH]c2nc(Nc3ccc(C(=O)N4CCN(C5COC5)CC4)c4c3OCCO4)nc(NCC3CC3)c12 [Example 317, 4-((cyclo-propylmeth-yl)amino)-2-((8-(4-(oxetan-3-yl)piperazine-1-carbonyl)-2,3-dihydrobenzo[b] [1,4]dioxin-5-yl)amino)-7H-pyrrolo[2,3-d]pyrimidine-5-carbonitrile]
< 100 | 301 to 1000 | COc1cc(P2(=O)CCN(C3CCOCC3)CC2)ccc1Nc1nc(NC2CCCCC2)c2c(C#N)c[nH]c2n1 [Example 324, 4-(cyclo-hexylamino)-2-((2-methoxy-4-(4-oxido-1-(tetrahydro-2H-pyran-4-yl)-1,4-azaphosphinan-4-yl)phenyl)amino)-7H-pyrrolo[2,3-d]pyrimidine-5-carbonitrile]
< 100 | 301 to 1000 | CCCNc1nc(Nc2ccc(C(=O)N3CC(CO)(CO)C3)c3c2OCCO3)nc2[nH]cc(C#N)c12 [Example 327, 2-((8-(3,3-bis(hydroxy-methyl)azetidine-1-carbonyl)-2,3-dihydrobenzo[b] [1,4]dioxin-5-yl)amino)-4-(propylamino)-7H-pyrrolo[2,3-d]pyrimidine-5-carbonitrile]
< 100 | 301 to 1000 | CC(C)CNc1nc(Nc2ccc(C(=O)N3CC(CO)(CO)C3)c3c2OCCO3)nc2[nH]cc(C#N)c12 [Example 328, 2-((8-(3,3-bis (hydroxymethyl)azetidine-1-carbonyl)-2,3-dihydrobenzo[b] [1,4]dioxin-5-yl)amino)-4-(isobutylamino)-7H-pyrrolo[2,3-d]pyrimidine-5-carbonitrile]
< 100 | 301 to 1000 | CC(C)Nc1nc(Nc2ccc(C(=O)N3CC(CO)(CO)C3)c3c2OCCO3)nc2[nH]cc(C#N)c12 [Example 329, 2-((8-(3,3-bis (hydroxymethyl)azetidine-1-carbonyl)-2,3-dihydrobenzo[b] [1,4]dioxin-5-yl)amino)-4-(isopropylamino)-7H-pyrrolo[2,3-d]pyrimidine-5-carbonitrile]
< 100 | 301 to 1000 | CC[C@@H](C)Nc1nc(Nc2ccc(C(=O)N3CC(CO)(CO)C3)c3c2OCCO3)nc2[nH]cc(C#N)c12 [Example 330, (R)-2-((8-(3,3-bis(hydroxy-methyl)azetidine-1-carbonyl)-2,3-dihydrobenzo[b] [1,4]dioxin-5-yl)amino)-4-(sec-butylamino)-7H-pyrrolo[2,3-d]pyrimidine-5-carbonitrile]
< 100 | 301 to 1000 | CC[C@H](C)Nc1nc(Nc2ccc(C(=O)N3CC(CO)(CO)C3)c3c2OCCO3)nc2[nH]cc(C#N)c12 [Example 331, (S)-2-((8-(3,3-bis(hydroxy-methyl)azetidine-1-carbonyl)-2,3-dihydrobenzo[b] [1,4]dioxin-5-yl)amino)-4-(sec-butylamino)-7H-pyrrolo[2,3-d]pyrimidine-5-carbonitrile]
< 100 | 301 to 1000 | N#Cc1c[nH]c2nc(Nc3ccc(C(=O)N4CC(CO)(CO)C4)c4c3OCCO4)nc(NC3CCC3)c12 [Example 333, 2-((8-(3,3-bis (hydroxymethyl)azetidine-1-carbonyl)-2,3-dihydrobenzo[b] [1,4]dioxin-5-yl)amino)-4-(cyclobutyl-amino)-7H-pyrrolo[2,3-d]pyrimidine-5-carbonitrile]
< 100 | 301 to 1000 | N#Cc1c[nH]c2nc(Nc3ccc(C(=O)N4CC(CO)(CO)C4)c4c3OCCO4)nc(NC3CCCC3)c12 [Example 334, 2-((8-(3,3-bis (hydroxymethyl)azetidine-1-carbonyl)-2,3-dihydrobenzo[b] [1,4]dioxin-5-yl)amino)-4-(cyclopentyl-amino)-7H-pyrrolo[2,3-d]pyrimidine-5-carbonitrile]
< 100 | 101 to 300 | N#Cc1c[nH]c2nc(Nc3ccc(C(=O)N4CC(CO)(CO)C4)c4c3OCCO4)nc(N[C@@H]3CCOC3)c12 [Example 335, (R)-2-((8-(3,3-bis(hydroxy-methyl)azetidine-1-carbonyl)-2,3-dihydrobenzo[b] [1,4]dioxin-5-yl)amino)-4-((tetrahydrofuran-3-yl)amino)-7H-pyrrolo[2,3-d]pyrimidine-5-carbonitrile]
< 100 | 301 to 1000 | N#Cc1c[nH]c2nc(Nc3ccc(C(=O)N4CC(CO)(CO)C4)c4c3OCCO4)nc(N[C@H]3CCOC3)c12 [Example 336, (S)-2-((8-(3,3-bis (hydroxymethyl)azetidine-1-carbonyl)-2,3-dihydrobenzo[b] [1,4]dioxin-5-yl)amino)-4-((tetrahydrofuran-3-yl)amino)-7H-pyrrolo[2,3-d]pyrimidine-5-carbonitrile]
< 100 | 301 to 1000 | N#Cc1c[nH]c2nc(Nc3ccc(C(=O)N4CC(CO)(CO)C4)c4c3OCCO4)nc(NC3CCOCC3)c12 [Example 337, 2-((8-(3,3-bis (hydroxymethyl)azetidine-1-carbonyl)-2,3-dihydrobenzo[b] [1,4]dioxin-5-yl)amino)-4-((tetrahydro-2H-pyran-4-yl)amino)-7H-pyrrolo[2,3-d]pyrimidine-5-carbonitrile]
